Assay results published in patent US5759836A, “Osteoarthritis-associated inducable isoform of nitric oxide synthetase” (priority 1995, dated 1998).
Entries after “also recorded” stand apart in the source; their conditions may differ.

Columns and labels:
[1] = system: NF-κB; settings: 30 μM; cited from earlier work
[2] = system: OA-NOS; experiment: Nitrite release by OA-affected articular cartilage, ex vivo organ culture; type: cell-based, human; settings: Homo sapiens; cycloheximide 35 μM or PDTC 30 μM, 24 h; cytokine/endotoxin-induced and control cartilage; read-out: block of nitrite accumulation
[3] = system: murine iNOS; experiment: Sensitivity of murine iNOS to PDTC
[4] = system: human iNOS; experiment: Sensitivity of human iNOS to PDTC
[5] = system: OA-NOS; experiment: Sensitivity of OA-NOS to agents (Table 3 comparison)
[6] = system: iNOS; experiment: Nitrite accumulation in LPS-stimulated RAW 264.7 murine macrophages (Griess method); type: cell-based; settings: Mus musculus, RAW264.7; 30 μM; read-out: block of nitrite accumulation
Protocol: Effects of NSAIDs on Nitrite Accumulation. […] The expression and activity of iNOS were monitored by estimation of the stable end-product: nitrites.
concentrations of NSAIDs for 2 h followed by addition of 100 ng/ml of LPS
After 16-18 h of incubation, the medium was used to estimate the
accumulation of nitrite by the Greiss method (Green et al., Anal Biochem.
The specific activity of iNOS was determined in cellfre
extracts at a given time period as described. The nitrite and specific
activity data are representative of mean ± SD value, as determined by
student t test, for 10 and 4 independent experiments, respectively. The p
values described are compared with LPSstimulated cells. […]

[7] = system: calmodulin; experiment: Calmodulin binding of NOS isoforms
Protocol: Extraction of Human Chondrocyte NOS and Western Blotting. Slices from articular cartilage affected by OA were frozen at -70° C., milled to fine particulate in liquid nitrogen, and sequentially extracted (10 ml/gram wet weight tissue) with neutral salt buffer (Tris HCl:saline) containing protease inhibitors (1 mM PMSF, 2 mM N-ethylmaleimide, and 0.025 mg/ml leupeptin), followed with the same buffer containing 10 mM EDTA, with 4 M guanidine-HCl, and then with a detergent buffer containing 10% SDS with protease inhibitors. Samples were run on 9% or 4-15% gradient SDS-PAGE gels under non-reducing conditions, transferred to nitrocellulose, and Western blotted with α-iNOS/α-ncNOS or α-calmodulin mAb (Cho et al., J. Exp. Med. 176:599-604, 1992). Bound antibody was detected by a secondary antibody conjugated with horseradish peroxidase, and developed using the ECL Western blotting system (Amersham, Arlington Heights, Ill.) on Kodak Xomatic X-ray film.

[8] = system: human chondrocyte NOS; settings: cited from earlier work
[9] = system: human iNOS; settings: crude lysates; cited from earlier work

S=C(S)N1CCCC1 [PDTC, pyrrolidine dithiocarbamate]
inhibition of NF-κB as component of iNOS transcription/expression [1]: inhibited
inhibition at 30 µM [2]: > 90%
effect on murine iNOS [3]: blocks murine iNOS
effect on human iNOS [4]: not human iNOS
sensitivity of OA-NOS [5]: blocked; also recorded: shows sensitivity
inhibition at 30 µM [6]: > 90%

human hepatocyte iNOS: obtained from NIH 3T3 fibroblasts transduced with a retrovirus carrying the human hepatocyte iNOS cDNA
Calmodulin binding [7]: complexed with calmodulin

O=C(O)CN(CCOCCOCCN(CC(=O)O)CC(=O)O)CC(=O)O [EGTA]
enzyme activity in cell-free extracts [8]: no effect on enzyme activity
human iNOS activity [9]: markedly reduces
